These results are taken from US20260132132A1, “3A,4,5,6-TETRAHYDRO-1 H-PYRAZOLO[3,4-C]PYRIDIN-7(7AH)-ONE DERIVATIVES AS FACTOR XIIA INHIBITORS” (KALVISTA PHARMACEUTICALS LIMITED, priority 2022, published 2026).

The target of assay [1] is T1, Human Factor XIIa (hFXIIa) (Homo sapiens, UniProt P00748).
T1 construct: purchased Enzyme Research Laboratories
T1 sequence (P00748 373-615 limits assumed): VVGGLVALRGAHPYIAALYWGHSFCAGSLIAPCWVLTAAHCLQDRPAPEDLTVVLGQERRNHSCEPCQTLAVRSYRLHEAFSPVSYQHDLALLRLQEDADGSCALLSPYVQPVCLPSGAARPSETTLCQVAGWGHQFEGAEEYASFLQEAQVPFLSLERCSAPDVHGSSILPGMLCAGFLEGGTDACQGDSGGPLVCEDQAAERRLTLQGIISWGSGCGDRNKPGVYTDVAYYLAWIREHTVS
T1 sequence (P00748 20-372 partner limits assumed): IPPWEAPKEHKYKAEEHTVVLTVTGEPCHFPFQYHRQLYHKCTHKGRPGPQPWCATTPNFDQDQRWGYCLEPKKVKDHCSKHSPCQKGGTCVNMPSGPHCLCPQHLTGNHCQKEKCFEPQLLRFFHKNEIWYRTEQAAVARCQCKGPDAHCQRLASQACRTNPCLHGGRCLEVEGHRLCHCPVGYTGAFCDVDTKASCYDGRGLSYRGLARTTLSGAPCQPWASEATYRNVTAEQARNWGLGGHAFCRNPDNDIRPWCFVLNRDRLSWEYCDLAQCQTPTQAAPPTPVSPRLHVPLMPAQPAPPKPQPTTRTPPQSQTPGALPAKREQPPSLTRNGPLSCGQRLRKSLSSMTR
Description: Determination of Human Factor XIIa (hFXIIa) inhibition, fluorogenic substrate IC50 assay. It counts as biochemical. To be noted: fluorogenic substrate H-DPro-Phe-Arg-AFC at Km, 25° C., read-out: Human FXIIa IC50. The method, then: Determination of Human Factor XIIa (hFXIIa) inhibition
The Km for the cleavage of the substrate by hFXIIa was determined by standard transformation of the Michaelis-Menten equation, with subsequent inhibition assays performed at substrate Km concentration.

A further assay concerns the target FXa (Homo sapiens, UniProt P00742). Description: Related protease inhibition: FXa, fluorogenic substrate. Particulars: fluorogenic substrate at Km, 25° C.; H1-H3 = % activity at 40 μM. It counts as biochemical. The method, then:
Human serine protease enzyme Plasma Kallikrein, KLK1, FXa, Plasmin, Thrombin and Trypsin were assayed for enzymatic activity using an appropriate fluorogenic substrate at Km concentration, FXIa at fixed substrate concentration of 100 μM and various concentrations of the test compound.

SMILES strings stand for the structures.

The IC50 is the concentration needed to halve the response being measured.

Sequence of FXa (P00742 235-488 limits assumed): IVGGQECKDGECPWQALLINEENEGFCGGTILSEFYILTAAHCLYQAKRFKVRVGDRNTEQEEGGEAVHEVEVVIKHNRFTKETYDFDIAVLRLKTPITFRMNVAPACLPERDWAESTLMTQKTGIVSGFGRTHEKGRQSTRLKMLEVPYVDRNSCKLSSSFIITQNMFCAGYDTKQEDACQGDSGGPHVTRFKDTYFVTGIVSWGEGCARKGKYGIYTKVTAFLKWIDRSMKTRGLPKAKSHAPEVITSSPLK
Sequence of FXa (P00742 41-179 partner limits assumed): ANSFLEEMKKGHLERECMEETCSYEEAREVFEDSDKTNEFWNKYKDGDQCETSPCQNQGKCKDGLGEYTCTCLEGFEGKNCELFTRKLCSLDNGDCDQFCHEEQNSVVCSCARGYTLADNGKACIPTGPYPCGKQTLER

On to `CCNC(=O)c1nn(-c2cccc(Cl)c2)c2c1CCN(c1cccc(N3CC4CC4C3=O)c1)C2=O` (stereo not shown) [Example 1368, 1-(3-chlorophenyl)-N-ethyl-7-oxo-6-(3-(2-oxo-3-azabicyclo[3.1.0]hexan-3-yl)phenyl)-4,5,6,7-tetrahydro-1H-pyrazolo[3,4-c]pyridine-3-carboxamide], for which the IC50 in assay [1] is 1 to 3 µM; against FXa it was greater than 40 µM.

As to `CCNC(=O)c1nn(-c2cccc(Cl)c2)c2c1CCN(c1cccc(N3CC4(CC4)N(C)C3=O)c1)C2=O` [Example 1369, 1-(3-chlorophenyl)-N-ethyl-6-(3-(4-methyl-5-oxo-4,6-diazaspiro[2.4]heptan-6-yl)phenyl)-7-oxo-4,5,6,7-tetrahydro-1H-pyrazolo[3,4-c]pyridine-3-carboxamide], the half-inhibitory concentration (IC50) in assay [1] is 3 to 10 µM; on FXa, greater than 40 µM.

In the case of `Cc1cc(CNC(=O)c2nn(-c3cccc(Cl)c3)c3c2CCN(c2ccc4c(c2)C(=O)N(C)CC(=O)N4C)C3=O)n[nH]1` [Example 1370, 1-(3-chlorophenyl)-6-(1,4-dimethyl-2,5-dioxo-2,3,4,5-tetrahydro-1H-benzo[e][1,4]diazepin-7-yl)-N-((5-methyl-1H-pyrazol-3-yl)methyl)-7-oxo-4,5,6,7-tetrahydro-1H-pyrazolo[3,4-c]pyridine-3-carboxamide], the half-inhibitory concentration (IC50) in assay [1] was in the range of 0.3 to 1 µM; at FXa, 10 to 40 µM.

In the case of `CCNC(=O)c1nn(-c2cccc(Cl)c2)c2c1CCN(c1ccc3c(c1)C(=O)N(CC)CCO3)C2=O` [Example 1371, 1-(3-chlorophenyl)-N-ethyl-6-(4-ethyl-5-oxo-2,3,4,5-tetrahydrobenzo[f][1,4]oxazepin-7-yl)-7-oxo-4,5,6,7-tetrahydro-1H-pyrazolo[3,4-c]pyridine-3-carboxamide], the 50% inhibitory concentration (IC50) in assay [1] was 0.1 to 0.3 µM; against FXa, 10 to 40 µM.

Turning to `Cc1cc(CNC(=O)c2nn(-c3cccc(Cl)c3)c3c2CCN(c2ccc4c(c2)C(=O)N(C)CC(=O)N4C)C3=O)nn1C` [Example 1372, 1-(3-chlorophenyl)-N-((1,5-dimethyl-1H-pyrazol-3-yl)methyl)-6-(1,4-dimethyl-2,5-dioxo-2,3,4,5-tetrahydro-1H-benzo[e][1,4]diazepin-7-yl)-7-oxo-4,5,6,7-tetrahydro-1H-pyrazolo[3,4-c]pyridine-3-carboxamide], the figures for the IC50 (in assay [1]; on FXa) were 0.3 to 1 µM and 10 to 40 µM, respectively.

Take `Cc1cc(CNC(=O)c2nn(-c3cccc(Cl)c3)c3c2CCN(c2ccc4c(c2)C(=O)N(CCO)[C@H](C)CO4)C3=O)n[nH]1` [Example 1373, (R)-1-(3-chlorophenyl)-6-(4-(2-hydroxyethyl)-3-methyl-5-oxo-2,3,4,5-tetrahydrobenzo[f][1,4]oxazepin-7-yl)-N-((5-methyl-1H-pyrazol-3-yl)methyl)-7-oxo-4,5,6,7-tetrahydro-1H-pyrazolo[3,4-c]pyridine-3-carboxamide]: the IC50 was 0.3 to 1 µM in assay [1] and greater than 40 µM against FXa.

Regarding `CCN1CCOc2ccc(N3CCc4c(C(=O)NCC5CC5)nn(-c5cccc(Cl)c5)c4C3=O)cc2C1=O` [Example 1374, 1-(3-chlorophenyl)-N-(cyclopropylmethyl)-6-(4-ethyl-5-oxo-2,3,4,5-tetrahydrobenzo[f][1,4]oxazepin-7-yl)-7-oxo-4,5,6,7-tetrahydro-1H-pyrazolo[3,4-c]pyridine-3-carboxamide], the IC50 in assay [1] lay within 0.1 to 0.3 µM; against FXa, 10 to 40 µM.

`CCNC(=O)c1nn(-c2cccc(Cl)c2)c2c1CCN(c1ccc3c(c1)C(=O)N(C)CC(=O)N3C)C2=O` [Example 1375, 1-(3-chlorophenyl)-6-(1,4-dimethyl-2,5-dioxo-2,3,4,5-tetrahydro-1H-benzo[e][1,4]diazepin-7-yl)-N-ethyl-7-oxo-4,5,6,7-tetrahydro-1H-pyrazolo[3,4-c]pyridine-3-carboxamide]: the IC50 is 3 to 10 µM in assay [1] and greater than 40 µM at FXa.

Regarding `Cc1ccncc1CNC(=O)c1nn(-c2cccc(Cl)c2)c2c1CCN(c1ccc3c(c1)C(=O)N(CCCO)CCO3)C2=O` [Example 1376, 1-(3-chlorophenyl)-6-(4-(3-hydroxypropyl)-5-oxo-2,3,4,5-tetrahydrobenzo[f][1,4]oxazepin-7-yl)-N-((4-methylpyridin-3-yl)methyl)-7-oxo-4,5,6,7-tetrahydro-1H-pyrazolo[3,4-c]pyridine-3-carboxamide], the half-maximal inhibitory concentration (IC50) in assay [1] lay within 0.01 to 0.1 µM; against FXa it was 3 to 10 µM.

Regarding `Cc1cc(CNC(=O)c2nn(-c3cccc(Cl)c3)c3c2CCN(c2ccc4c(c2)C(=O)N(CCCO)CCO4)C3=O)nn1C` [Example 1377, 1-(3-chlorophenyl)-N-((1,5-dimethyl-1H-pyrazol-3-yl)methyl)-6-(4-(3-hydroxypropyl)-5-oxo-2,3,4,5-tetrahydrobenzo[f][1,4]oxazepin-7-yl)-7-oxo-4,5,6,7-tetrahydro-1H-pyrazolo[3,4-c]pyridine-3-carboxamide], the half-maximal inhibitory concentration (IC50) in assay [1] was 0.01 to 0.1 µM; at FXa, 3 to 10 µM.

Regarding `Cc1cc(CNC(=O)c2nn(-c3cccc(Cl)c3)c3c2CCN(c2ccc4c(c2)C(=O)N(CCO)[C@@H](C)CO4)C3=O)nn1C` [Example 1379, (S)-1-(3-chlorophenyl)-N-((1,5-dimethyl-1H-pyrazol-3-yl)methyl)-6-(4-(2-hydroxyethyl)-3-methyl-5-oxo-2,3,4,5-tetrahydrobenzo[f][1,4]oxazepin-7-yl)-7-oxo-4,5,6,7-tetrahydro-1H-pyrazolo[3,4-c]pyridine-3-carboxamide], the IC50 in assay [1] was 0.3 to 1 µM; at FXa it was 3 to 10 µM.

In the case of `Cc1cc(CNC(=O)c2nn(-c3cccc(Cl)c3)c3c2CCN(c2ccc4c(c2)C(=O)N(CCO)[C@@H](C)CO4)C3=O)n[nH]1` [Example 1380, (S)-1-(3-chlorophenyl)-6-(4-(2-hydroxyethyl)-3-methyl-5-oxo-2,3,4,5-tetrahydrobenzo[f][1,4]oxazepin-7-yl)-N-((5-methyl-1H-pyrazol-3-yl)methyl)-7-oxo-4,5,6,7-tetrahydro-1H-pyrazolo[3,4-c]pyridine-3-carboxamide], the IC50 was in the range of 0.3 to 1 µM in assay [1] and 10 to 40 µM at FXa.

Regarding `CCNC(=O)c1nn(-c2cccc(Cl)c2)c2c1CCN(c1ccc3c(c1)C(=O)N(CCO)[C@@H](C)CO3)C2=O` [Example 1381, (S)-1-(3-chlorophenyl)-N-ethyl-6-(4-(2-hydroxyethyl)-3-methyl-5-oxo-2,3,4,5-tetrahydrobenzo[f][1,4]oxazepin-7-yl)-7-oxo-4,5,6,7-tetrahydro-1H-pyrazolo[3,4-c]pyridine-3-carboxamide], the values for the half-maximal inhibitory concentration (IC50) (in assay [1]; against FXa) were 1 to 3 µM and greater than 40 µM, respectively.

As for `Cc1cc(CNC(=O)c2nn(-c3cccc(Cl)c3)c3c2CCN(c2ccc4c(c2)C(=O)N(CC(F)F)CCO4)C3=O)n[nH]1` [Example 1382, 1-(3-chlorophenyl)-6-(4-(2,2-difluoroethyl)-5-oxo-2,3,4,5-tetrahydrobenzo[f][1,4]oxazepin-7-yl)-N-((5-methyl-1H-pyrazol-3-yl)methyl)-7-oxo-4,5,6,7-tetrahydro-1H-pyrazolo[3,4-c]pyridine-3-carboxamide], the IC50 lay within 0.01 to 0.1 µM in assay [1] and 3 to 10 µM on FXa.
